In the NIST ThermoML archive (doi:10.1016/j.fluid.2017.06.022):
± gives the expanded uncertainty stated by the source.

Assay: xn = mol fraction of the nth substance listed
Conditions: Liquid, Bellows volumetry

C=C [ethene] + Cc1ccccc1
Conditions	mass density [kg/m3]
421 K, 37600 kPa, x1 = 0.3067	688.2 ± 16
421 K, 44700 kPa, x1 = 0.3067	698 ± 17
421 K, 51000 kPa, x1 = 0.3067	705.4 ± 17
421 K, 58300 kPa, x1 = 0.3067	714.6 ± 17
421 K, 63100 kPa, x1 = 0.3067	720.1 ± 17
421 K, 66800 kPa, x1 = 0.3067	724 ± 17
422.2 K, 2530 kPa, x1 = 0.1194	681.2 ± 16
422.2 K, 2830 kPa, x1 = 0.1194	682.2 ± 16
422.2 K, 3620 kPa, x1 = 0.1194	684.1 ± 16
422.2 K, 5330 kPa, x1 = 0.1194	688.4 ± 16
422.2 K, 7040 kPa, x1 = 0.1194	692.2 ± 17
422.2 K, 7110 kPa, x1 = 0.1194	692.2 ± 17
422.2 K, 10420 kPa, x1 = 0.1194	699.6 ± 17
422.2 K, 13400 kPa, x1 = 0.1194	705.1 ± 17
422.2 K, 17400 kPa, x1 = 0.1194	712.2 ± 17
422.2 K, 20480 kPa, x1 = 0.1194	716.9 ± 17
422.2 K, 22980 kPa, x1 = 0.1194	720.6 ± 17
422.2 K, 24010 kPa, x1 = 0.1194	722.1 ± 17
422.2 K, 30990 kPa, x1 = 0.1194	731.2 ± 18
422.2 K, 37420 kPa, x1 = 0.1194	739.4 ± 18
422.2 K, 44550 kPa, x1 = 0.1194	747.3 ± 18
422.2 K, 51320 kPa, x1 = 0.1194	755.3 ± 18
422.2 K, 58240 kPa, x1 = 0.1194	762.3 ± 18
422.2 K, 63240 kPa, x1 = 0.1194	767.6 ± 18
422.2 K, 67210 kPa, x1 = 0.1194	771.2 ± 18
470.9 K, 3430 kPa, x1 = 0.1194	616.2 ± 15
470.9 K, 3560 kPa, x1 = 0.1194	617.7 ± 15
470.9 K, 4240 kPa, x1 = 0.1194	620.4 ± 15
470.9 K, 4990 kPa, x1 = 0.1194	623.6 ± 15
470.9 K, 5950 kPa, x1 = 0.1194	627.5 ± 15
470.9 K, 7310 kPa, x1 = 0.1194	631.9 ± 15
470.9 K, 10590 kPa, x1 = 0.1194	642.6 ± 15
470.9 K, 14000 kPa, x1 = 0.1194	652.4 ± 16
470.9 K, 16940 kPa, x1 = 0.1194	659.8 ± 16
470.9 K, 24260 kPa, x1 = 0.1194	676.6 ± 16
470.9 K, 31240 kPa, x1 = 0.1194	690.3 ± 17
470.9 K, 37460 kPa, x1 = 0.1194	701.1 ± 17
470.9 K, 41500 kPa, x1 = 0.1194	707.1 ± 17
470.9 K, 44850 kPa, x1 = 0.1194	712.2 ± 17
470.9 K, 51420 kPa, x1 = 0.1194	720.6 ± 17
470.9 K, 58440 kPa, x1 = 0.1194	729.1 ± 18
470.9 K, 62650 kPa, x1 = 0.1194	733.4 ± 18
470.9 K, 67380 kPa, x1 = 0.1194	738.3 ± 18
475.1 K, 7800 kPa, x1 = 0.3067	540.4 ± 13
475.1 K, 8600 kPa, x1 = 0.3067	545.2 ± 13
475.1 K, 9400 kPa, x1 = 0.3067	551 ± 13
475.1 K, 10600 kPa, x1 = 0.3067	557.2 ± 13
